Data: article PMC9491098, “Discovery of novel drug-like antitubercular hits targeting the MEP pathway enzyme DXPS by strategic application of ligand-based virtual screening” (Chemical Science, 2022)
≈ marks a conversion by molar mass, not a printed value. Where “and” joins values, the source holds several entries; their conditions need not be identical. Equal values may be shown once. Read-outs that look alike come from different tables or passages of the source.

What was measured:
[1] = biological target: T1, MtDXPS (Mycobacterium tuberculosis, UniProt P9WNS3); experiment: biochemical; conditions: for mode of inhibition on MtDXPS: MOI study, comparison of IC50 under varied [ThDP], [PYR], [D-GAP]; for equilibration time (slow-binding): time-dependent progress curves, Fig. 4A, inhibitor 100 µM
T1 sequence (P9WNS3 whole entry, looked up): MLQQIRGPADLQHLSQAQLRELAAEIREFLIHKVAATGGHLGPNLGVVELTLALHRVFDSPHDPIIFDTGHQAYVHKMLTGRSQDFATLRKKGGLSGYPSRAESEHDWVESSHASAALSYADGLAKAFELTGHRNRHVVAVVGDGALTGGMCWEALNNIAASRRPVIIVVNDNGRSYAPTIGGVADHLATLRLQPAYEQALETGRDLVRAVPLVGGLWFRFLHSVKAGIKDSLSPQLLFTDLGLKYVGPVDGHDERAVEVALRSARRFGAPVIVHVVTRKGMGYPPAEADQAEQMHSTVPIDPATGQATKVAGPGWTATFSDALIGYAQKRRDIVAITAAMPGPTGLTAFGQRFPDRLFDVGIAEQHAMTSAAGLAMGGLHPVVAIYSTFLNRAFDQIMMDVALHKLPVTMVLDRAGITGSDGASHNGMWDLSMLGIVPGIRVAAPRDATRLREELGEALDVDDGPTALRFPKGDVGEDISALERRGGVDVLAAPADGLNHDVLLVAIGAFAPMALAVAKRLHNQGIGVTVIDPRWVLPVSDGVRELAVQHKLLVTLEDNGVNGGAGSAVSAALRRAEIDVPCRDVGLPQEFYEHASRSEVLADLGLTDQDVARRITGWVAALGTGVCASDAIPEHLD

[2] = biological target: DrDXPS (WT) (Deinococcus radiodurans, UniProt Q9RUB5); experiment: biochemical; type: biochemical; conditions: IC50, Fig. 5F/G, DrDXPS (WT)
Chain of DrDXPS (WT) (Q9RUB5 whole entry, looked up): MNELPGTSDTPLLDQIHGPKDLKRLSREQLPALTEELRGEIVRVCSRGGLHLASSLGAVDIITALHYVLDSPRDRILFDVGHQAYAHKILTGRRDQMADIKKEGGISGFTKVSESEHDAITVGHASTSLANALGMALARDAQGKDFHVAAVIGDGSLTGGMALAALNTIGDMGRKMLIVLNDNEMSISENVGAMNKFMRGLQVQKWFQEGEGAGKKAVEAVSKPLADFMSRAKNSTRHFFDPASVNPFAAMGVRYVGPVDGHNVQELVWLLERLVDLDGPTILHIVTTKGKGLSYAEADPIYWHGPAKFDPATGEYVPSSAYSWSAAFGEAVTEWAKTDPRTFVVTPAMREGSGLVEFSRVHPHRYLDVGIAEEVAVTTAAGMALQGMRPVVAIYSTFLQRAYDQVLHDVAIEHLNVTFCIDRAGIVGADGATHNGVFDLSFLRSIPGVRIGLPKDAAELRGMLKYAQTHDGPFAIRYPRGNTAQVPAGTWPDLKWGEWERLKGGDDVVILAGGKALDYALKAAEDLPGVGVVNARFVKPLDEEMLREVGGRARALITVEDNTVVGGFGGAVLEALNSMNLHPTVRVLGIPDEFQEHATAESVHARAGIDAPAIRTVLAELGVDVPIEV

[3] = biological target: T1, MtDXPS; experiment: biochemical
[4] = biological target: T1, MtDXPS; experiment: microscale thermophoresis (MST) dissociation constant; type: binding; conditions: Fig. 4F
Experimental: ETB + A <===> ETAB : Ka2 (Ka2 is the dissociation constant of pyruvate with […]
ETA + B <===> ETAB : Kb2 (Kb2 is the dissociation constant of ThDP with DXPS) E + I <===> EI* : Ki* (Ki* is the Morrison inhibition constant of inhibitor with apoDXPS) ETAB ---> ET + P : kcat (kcat is the catalytic constant of DXPS) […]
microscale thermophoresis (MST)
MST measurements were performed on a Monolith NT.115 (NanoTemper
Technologies GmbH, Germany) instrument using red-dye-NHS fluorescent labeling.
Each purified MtDXPS sample was labeled with red-dye-NHS second generation dye, according to the supplied protocol. Measurements were performed in 100 m M Tris-HCl (pH 7.6) containing 0.05% Tween-20 and 5% DMSO in premium treated capillaries.
The final concentration of each labeled protein in the assay was 100 n M. The inhibitors were titrated in 1:1 dilutions according to the supplier’s recommendations. All binding reactions were incubated at room temperature for 30 min before loading, and then pre-incubated for 5 min at room temperature after loading into the capillaries. Experiments were performed in duplicates, using 40% LED power, medium MST power, laser on time 20 s, and laser off time 3 s. Kds of the inhibitors were extracted from raw data at a 10–20 s on time according to the manufacturer’s instructions. A denaturation test was performed to exclude any nonspecific spectral interactions between the inhibitors […]
The solutions were vortexed, and then the rest of the assay components was added in the following order: HEPES, pH = 8 (100 m M), bovine serum albumin (1 mg/mL), cysteine (2 mM), ThDP (0.325 μM), coenzyme-A (150 μM), TCEP (300 μM), pyruvate (150 μM) and MgCl2 (1 mM). […] Porcine PDH (final concentration of 0.01 U/ mL) was then added to initiate the reactions, which were monitored spectrophotometrically by measuring the […]

[5] = tested on: E. coli strain BL21 (DE3) pQEYAEM; experiment: microbe, parasite or virus in culture; type: cell-based; conditions: Escherichia coli, Fig. 6A
[6] = tested on: E. coli strain BL21 (DE3) pET22b-H6[…]; experiment: microbe, parasite or virus in culture; type: cell-based; conditions: Escherichia coli, Fig. 6B
[7] = tested on: M. tuberculosis strains; experiment: MIC against multiple M. tuberculosis strains, absolute concentration method on 7H10 agar; type: cell-based; conditions: Mycobacterium tuberculosis
[8] = tested on: HepG2; experiment: toxicity against human cell lines; type: cell-based; conditions: HepG2, 48 h, read-out: Toxicity Human cell lines EC50 (μM) HepG2
[9] = tested on: HEK293; experiment: toxicity against human cell lines; type: cell-based; conditions: HEK293, 48 h, read-out: Toxicity Human cell lines EC50 (μM) HEK293
[10] = tested on: A549; experiment: toxicity against human cell lines; type: cell-based; conditions: A549, 48 h, read-out: Toxicity Human cell lines EC50 (μM) A549
[11] = tested on: zebrafish larvae; experiment: toxicity against zebrafish larvae; type: in vivo; conditions: Table S4, 10 larvae per condition
[12] = tested on: E. coli TolC; experiment: microbe, parasite or virus in culture; type: cell-based; conditions: Escherichia coli
[13] = biological target: T1, MtDXPS
[14] = metabolic stability in human liver S9 fraction; conditions: pooled liver S9 fraction
Experimental: For vitro assessment of metabolic stability, 10 µL of each compound (10 µM) was
incubated with human pooled liver S9-fraction (1 mg/mL, Corning, Corning, NY, USA)
in a master mix containing 2 mM NADP, 10 mM glucose-6-phosphate, 10 U/mL
glucose-6-phosphate dehydrogenase, 1 mM UDPGA, 0.1 mM PAPS, 10 mM MgCl2.
acetonitrile containing diphenhydramine as internal standard at 4 °C. The supernatant
was used for LC-MS analysis and half life time t1/2 was calculated from decreasing
concentrations/peak areas.
LC conditions: samples were analyzed with an Ultimate 3000 HPLC (Thermo Fisher,
Waltham, MA, USA) coupled to a TSQ Quantum Access Max triple quadrupole mass
spectrometer (Thermo Fisher, Waltham, MA, USA) in SRM mode. Analysis was
performed on a Nucleodur C18 Pyramid column (3 µm, 2x150 mm, Macherey-Nagel,
Düren, Germany) with a flow of 0.6 mL/min and a water (0.1% formic acid) and
acetonitrile (0.1% formic acid) eluent system. Gradient as follows: 10% acetonitrile for
1 min, 10–90% acetonitrile over 0.7 min, 90% acetonitrile for 1.8 min, equilibration at
10% acetonitrile for 1 min.
MS conditions: calibration of mass spectrometer parameters was performed
individually for each compound:

[15] = [ThDP] 0.1 μM (1.6x Km), [PYR] 0.5 mM (2.4x), [D-GAP] […] (1.5x)
[16] = [ThDP] 0.1 μM (1.6x Km), [PYR] […] (1.2x), [D-GAP] 0.5 mM (2.9x)
[17] = [ThDP] 0.1 μM (1.6x Km), [PYR] […] (1.2x), [D-GAP] […] (1.5x)
[18] = [ThDP] 0.2 μM (3.2x Km), [PYR] […] (1.2x), [D-GAP] […] (1.5x)
[19] = Morrison constant Ki* against MtDXPS, two-step tight-binding Morrison model, Dynafit, text and Fig. 4C–E
[20] = [IPTG] 0.5 mM (E. coli IspC overexpression)
[21] = [IPTG] 0.5 mM (MtDXPS overexpression)
[22] = read-out: Antitubercular activity Strain & MIC (μM) A
[23] = read-out: Antitubercular activity Strain & MIC (μM) B
[24] = read-out: Antitubercular activity Strain & MIC (μM) C
[25] = read-out: Antitubercular activity Strain & MIC (μM) D
[26] = read-out: Antitubercular activity Strain & MIC (μM) E
[27] = read-out: Antitubercular activity Strain & MIC (μM) F
[28] = susceptible, DR, MDR and XDR strains, read-out: antitubercular activity (MIC) against multiple M. tuberculosis strains

ON=C(Cc1ccc(Cl)cc1)c1ccc(O)cc1O [Compound 9]
IC50 ([1]; IC50 (μM)): 44 ± 8 µM | IC50 ([1]; IC50 against MtDXPS): 140 ± 12 µM | IC50 ([1]; IC50 against MtDXPS (MOI study)): 17 µM and 35 µM and 58 µM and 121 µM | mode of inhibition on MtDXPS [1]: competitive with ThDP and both substrates | equilibration time (slow-binding) [1]: ~100 s | IC50 [2, 15]: 59 ± 10 µM | IC50 [2, 16]: 70 ± 11 µM | IC50 [2, 17]: 33 ± 4 µM | IC50 [2, 18]: 54 ± 7 µM | Ki ([3]; K i* (μM), Table 1B, oxime derivatives, MtDXPS): 0.3 ± 0.02 µM | Ki [3, 19]: 0.271 µM and 0.2 to 0.3 µM | Kd [4]: 0.221 µM and 0.2 µM | MIC ([5]; [IPTG] 0 mM): 12 ± 3 µM (≈ 3.33 µg/mL) | MIC [5, 20]: 10 ± 1 µM (≈ 2.78 µg/mL) | MIC ([6]; [IPTG] 0 mM): 15 ± 1 µM (≈ 4.17 µg/mL) | MIC [6, 21]: > 200 µM | MIC [7, 22]: 10 µM (≈ 2.78 µg/mL) | MIC [7, 23]: 10 µM (≈ 2.78 µg/mL) | MIC [7, 24]: 10 µM (≈ 2.78 µg/mL) | MIC [7, 25]: 10 µM (≈ 2.78 µg/mL) | MIC [7, 26]: 10 µM (≈ 2.78 µg/mL) | MIC [7, 27]: 5 to 10 µM (≈ 1.39 to 2.78 µg/mL) | MIC [7, 28]: 5 to 10 µM (≈ 1.39 to 2.78 µg/mL) | EC50 [8]: > 50 µM | EC50 [9]: > 50 µM | EC50 [10]: > 50 µM | number of living zebrafish larvae ([11]; 2 µM, 24 h (2 dpf)): 10 | number of living zebrafish larvae ([11]; 2 µM, 48 h (3 dpf)): 10 | number of living zebrafish larvae ([11]; 2 µM, 72 h (4 dpf)): 10 | number of living zebrafish larvae ([11]; 2 µM, 96 h (5 dpf)): 10 | number of living zebrafish larvae ([11]; 10 µM, 24 h (2 dpf)): 10 | number of living zebrafish larvae ([11]; 10 µM, 48 h (3 dpf)): 10 | number of living zebrafish larvae ([11]; 10 µM, 72 h (4 dpf)): 10 | number of living zebrafish larvae ([11]; 10 µM, 96 h (5 dpf)): 10 | number of living zebrafish larvae ([11]; 30 µM, 24 h (2 dpf)): 10 | number of living zebrafish larvae ([11]; 30 µM, 48 h (3 dpf)): 10 | number of living zebrafish larvae ([11]; 30 µM, 72 h (4 dpf)): 10 | number of living zebrafish larvae ([11]; 30 µM, 96 h (5 dpf)): 10 | number of living zebrafish larvae ([11]; 100 µM, 24 h (2 dpf)): 5 | number of living zebrafish larvae ([11]; 100 µM, 48 h (3 dpf)): 2 | number of living zebrafish larvae ([11]; 100 µM, 72 h (4 dpf)): 0 | number of living zebrafish larvae ([11]; 100 µM, 96 h (5 dpf)): 0 | MIC [12]: 21.9 ± 1.3 µM (≈ 6.08 µg/mL) | hit validation (false-positive check) [13]: true inhibitors | half-life at 10 µM [14]: 20 min

Cc1nc(N)sc1-c1csc(Nc2ccc(C(F)(F)F)cc2)n1 [Compound 10]
IC50 ([1]; IC50 (μM)): 32 ± 3 µM | IC50 ([1]; IC50 against MtDXPS): 118 ± 10 µM | mode of inhibition on MtDXPS [1]: competitive with ThDP and both substrates | equilibration time (slow-binding) [1]: ~100 s | IC50 [2, 15]: 108 ± 20 µM | IC50 [2, 16]: 132 ± 22 µM | IC50 [2, 17]: 60 ± 11 µM | IC50 [2, 18]: 81 ± 12 µM | Ki ([3]; K i* (μM), Table 1C, aminothiazole derivatives, MtDXPS): 0.2 ± 0.02 µM | Ki [3, 19]: 0.212 µM and 0.2 to 0.3 µM | Kd [4]: 0.206 µM and 0.2 µM | MIC ([5]; [IPTG] 0 mM): 15 ± 3 µM (≈ 5.35 µg/mL) | MIC [5, 20]: 17 ± 2 µM (≈ 6.06 µg/mL) | MIC ([6]; [IPTG] 0 mM): 13 ± 1 µM (≈ 4.63 µg/mL) | MIC [6, 21]: 35 ± 3 µM (≈ 12.5 µg/mL) | MIC [7, 22]: > 10 µM | MIC [7, 23]: 5 µM (≈ 1.78 µg/mL) | MIC [7, 24]: 5 µM (≈ 1.78 µg/mL) | MIC [7, 25]: 10 µM (≈ 3.56 µg/mL) | MIC [7, 26]: 5 to 10 µM (≈ 1.78 to 3.56 µg/mL) | MIC [7, 27]: 5 to 10 µM (≈ 1.78 to 3.56 µg/mL) | MIC [7, 28]: 5 to 10 µM (≈ 1.78 to 3.56 µg/mL) | EC50 [8]: > 50 µM | EC50 [9]: 25 to 50 µM | EC50 [10]: > 50 µM | number of living zebrafish larvae ([11]; 2 µM, 24 h (2 dpf)): 10 | number of living zebrafish larvae ([11]; 2 µM, 48 h (3 dpf)): 10 | number of living zebrafish larvae ([11]; 2 µM, 72 h (4 dpf)): 10 | number of living zebrafish larvae ([11]; 2 µM, 96 h (5 dpf)): 10 | number of living zebrafish larvae ([11]; 10 µM, 24 h (2 dpf)): 10 | number of living zebrafish larvae ([11]; 10 µM, 48 h (3 dpf)): 10 | number of living zebrafish larvae ([11]; 10 µM, 72 h (4 dpf)): 10 | number of living zebrafish larvae ([11]; 10 µM, 96 h (5 dpf)): 10 | number of living zebrafish larvae ([11]; 30 µM, 24 h (2 dpf)): 2 | number of living zebrafish larvae ([11]; 30 µM, 48 h (3 dpf)): 0 | number of living zebrafish larvae ([11]; 30 µM, 72 h (4 dpf)): 0 | number of living zebrafish larvae ([11]; 30 µM, 96 h (5 dpf)): 0 | number of living zebrafish larvae ([11]; 100 µM, 24 h (2 dpf)): 0 | number of living zebrafish larvae ([11]; 100 µM, 48 h (3 dpf)): 0 | number of living zebrafish larvae ([11]; 100 µM, 72 h (4 dpf)): 0 | number of living zebrafish larvae ([11]; 100 µM, 96 h (5 dpf)): 0 | MIC [12]: 22.2 ± 3.1 µM (≈ 7.91 µg/mL) | hit validation (false-positive check) [13]: true inhibitors | half-life at 10 µM [14]: > 60 min
